Measured values published in PubChem BioAssay (NCI).
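Compound exposure: 48 hours, 5 concentrations, 96-well plates. Definition used: TGI = concentration required for complete inhibition of growth.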

Assays:
Assay in all cases: DTP human tumour cell line panel, 48 h
OVCAR-4 ovarian = test system: OVCAR-4 ovarian
UO-31 renal = test system: UO-31 renal
SNB-19 CNS = test system: SNB-19 CNS
SF-539 CNS = test system: SF-539 CNS
OVCAR-5 ovarian = test system: OVCAR-5 ovarian
TK-10 renal = test system: TK-10 renal
U251 CNS = test system: U251 CNS
CAKI-1 renal = test system: CAKI-1 renal
K-562 leukemia = test system: K-562 leukemia
T-47D breast = test system: T-47D breast
MDA-MB-435 = test system: MDA-MB-435
HS 578T breast = test system: HS 578T breast
PC-3 prostate = test system: PC-3 prostate
SK-MEL-2 melanoma = test system: SK-MEL-2 melanoma
HCT-116 colon = test system: HCT-116 colon
NCI-H226 lung = test system: NCI-H226 lung
RXF 393 renal = test system: RXF 393 renal
SK-MEL-5 melanoma = test system: SK-MEL-5 melanoma
SN12C renal = test system: SN12C renal
DU-145 prostate = test system: DU-145 prostate
NCI-H460 lung = test system: NCI-H460 lung
SF-268 CNS = test system: SF-268 CNS
UACC-257 melanoma = test system: UACC-257 melanoma
MOLT-4 leukemia = test system: MOLT-4 leukemia
SR leukemia = test system: SR leukemia
HT29 colon = test system: HT29 colon
COLO 205 colon = test system: COLO 205 colon
MDA-N = test system: MDA-N
BT-549 breast = test system: BT-549 breast
KM12 colon = test system: KM12 colon
HL-60(TB) leukemia = test system: HL-60(TB) leukemia
MCF7 breast = test system: MCF7 breast
MDA-MB-231 breast = test system: MDA-MB-231 breast
LOX IMVI melanoma = test system: LOX IMVI melanoma
SW-620 colon = test system: SW-620 colon
HOP-92 NSCLC = test system: HOP-92 NSCLC
CCRF-CEM leukemia = test system: CCRF-CEM leukemia
786-0 renal = test system: 786-0 renal
IGROV1 ovarian = test system: IGROV1 ovarian
A549 NSCLC = test system: A549 NSCLC
HCT-15 colon = test system: HCT-15 colon
ACHN renal = test system: ACHN renal
OVCAR-3 ovarian = test system: OVCAR-3 ovarian
NCI-H23 lung = test system: NCI-H23 lung
UACC-62 melanoma = test system: UACC-62 melanoma
NCI/ADR-RES ovarian = test system: NCI/ADR-RES ovarian
M14 melanoma = test system: M14 melanoma
HOP-62 NSCLC = test system: HOP-62 NSCLC
OVCAR-8 ovarian = test system: OVCAR-8 ovarian
SNB-75 CNS = test system: SNB-75 CNS
SK-MEL-28 melanoma = test system: SK-MEL-28 melanoma
NCI-H522 lung = test system: NCI-H522 lung
EKVX NSCLC = test system: EKVX NSCLC
SK-OV-3 ovarian = test system: SK-OV-3 ovarian
SF-295 CNS = test system: SF-295 CNS
MALME-3M melanoma = test system: MALME-3M melanoma
A498 renal = test system: A498 renal
RPMI-8226 leukemia = test system: RPMI-8226 leukemia
HCC-2998 colon = test system: HCC-2998 colon

SMILES: NC(=O)C(c1ccccc1)N1OC2C(=O)N(Cc3ccccc3)C(=O)C2C1c1cccc(Oc2ccc(Cl)cc2)c1 (stereo not given)
- TGI (OVCAR-4 ovarian): > 100 µM
- TGI (UO-31 renal): 7.88 µM
- TGI (SNB-19 CNS): > 100 µM
- TGI (SF-539 CNS): 47.2 µM
- TGI (OVCAR-5 ovarian): > 100 µM
- TGI (TK-10 renal): 95.6 µM
- TGI (U251 CNS): 85.6 µM
- TGI (CAKI-1 renal): 31.9 µM
- TGI (K-562 leukemia): 99.5 µM
- TGI (T-47D breast): > 100 µM
- TGI (MDA-MB-435): > 100 µM
- TGI (HS 578T breast): > 100 µM
- TGI (PC-3 prostate): > 100 µM
- TGI (SK-MEL-2 melanoma): 48.8 µM
- TGI (HCT-116 colon): 44.5 µM
- TGI (NCI-H226 lung): > 100 µM
- TGI (RXF 393 renal): 53 µM
- TGI (SK-MEL-5 melanoma): 30.4 µM
- TGI (SN12C renal): 30.7 µM
- TGI (DU-145 prostate): > 100 µM
- TGI (NCI-H460 lung): 90.1 µM
- TGI (SF-268 CNS): > 100 µM
- TGI (UACC-257 melanoma): > 100 µM
- TGI (MOLT-4 leukemia): 98.9 µM
- TGI (SR leukemia): 54.1 µM
- TGI (HT29 colon): 35.6 µM
- TGI (COLO 205 colon): 32 µM
- TGI (MDA-N): 49.7 µM
- TGI (BT-549 breast): > 100 µM
- TGI (KM12 colon): > 100 µM
- TGI (HL-60(TB) leukemia): 51.2 µM
- TGI (MCF7 breast): 69.4 µM
- TGI (MDA-MB-231 breast): > 100 µM
- TGI (LOX IMVI melanoma): 34.2 µM
- TGI (SW-620 colon): > 100 µM
- TGI (HOP-92 NSCLC): > 100 µM
- TGI (CCRF-CEM leukemia): > 100 µM
- TGI (786-0 renal): 50 µM
- TGI (IGROV1 ovarian): > 100 µM
- TGI (A549 NSCLC): > 100 µM
- TGI (HCT-15 colon): > 100 µM
- TGI (ACHN renal): 39.9 µM
- TGI (OVCAR-3 ovarian): 43.1 µM
- TGI (NCI-H23 lung): > 100 µM
- TGI (UACC-62 melanoma): 32.3 µM
- TGI (NCI/ADR-RES ovarian): > 100 µM
- TGI (M14 melanoma): 69.5 µM
- TGI (HOP-62 NSCLC): > 100 µM
- TGI (OVCAR-8 ovarian): > 100 µM
- TGI (SNB-75 CNS): > 100 µM
- TGI (SK-MEL-28 melanoma): > 100 µM
- TGI (NCI-H522 lung): > 100 µM
- TGI (EKVX NSCLC): 67.2 µM
- TGI (SK-OV-3 ovarian): > 100 µM
- TGI (SF-295 CNS): > 100 µM
- TGI (MALME-3M melanoma): > 100 µM
- TGI (A498 renal): > 100 µM

SMILES: COc1ccc(C(C#N)NC23CC4CC(CC(C4)C2)C3)cc1OC (stereo not given)
- TGI (OVCAR-4 ovarian): > 100 µM
- TGI (UO-31 renal): > 100 µM
- TGI (SNB-19 CNS): > 100 µM
- TGI (SF-539 CNS): > 100 µM
- TGI (OVCAR-5 ovarian): > 100 µM
- TGI (TK-10 renal): > 100 µM
- TGI (U251 CNS): > 100 µM
- TGI (CAKI-1 renal): > 100 µM
- TGI (K-562 leukemia): > 100 µM
- TGI (T-47D breast): > 100 µM
- TGI (MDA-MB-435): > 100 µM
- TGI (HS 578T breast): > 100 µM
- TGI (PC-3 prostate): > 100 µM
- TGI (SK-MEL-2 melanoma): > 100 µM
- TGI (HCT-116 colon): > 100 µM
- TGI (NCI-H226 lung): > 100 µM
- TGI (RXF 393 renal): > 100 µM
- TGI (SK-MEL-5 melanoma): > 100 µM
- TGI (SN12C renal): > 100 µM
- TGI (DU-145 prostate): > 100 µM
- TGI (NCI-H460 lung): > 100 µM
- TGI (SF-268 CNS): > 100 µM
- TGI (UACC-257 melanoma): > 100 µM
- TGI (MOLT-4 leukemia): > 100 µM
- TGI (SR leukemia): > 100 µM
- TGI (HT29 colon): > 100 µM
- TGI (COLO 205 colon): > 100 µM
- TGI (MDA-N): > 100 µM
- TGI (BT-549 breast): > 100 µM
- TGI (KM12 colon): > 100 µM
- TGI (HL-60(TB) leukemia): > 100 µM
- TGI (MCF7 breast): > 100 µM
- TGI (MDA-MB-231 breast): > 100 µM
- TGI (LOX IMVI melanoma): > 100 µM
- TGI (SW-620 colon): > 100 µM
- TGI (HOP-92 NSCLC): > 100 µM
- TGI (CCRF-CEM leukemia): > 100 µM
- TGI (786-0 renal): > 100 µM
- TGI (IGROV1 ovarian): > 100 µM
- TGI (RPMI-8226 leukemia): > 100 µM
- TGI (A549 NSCLC): > 100 µM
- TGI (HCT-15 colon): > 100 µM
- TGI (ACHN renal): > 100 µM
- TGI (OVCAR-3 ovarian): > 100 µM
- TGI (NCI-H23 lung): > 100 µM
- TGI (UACC-62 melanoma): > 100 µM
- TGI (NCI/ADR-RES ovarian): > 100 µM
- TGI (M14 melanoma): > 100 µM
- TGI (HOP-62 NSCLC): > 100 µM
- TGI (OVCAR-8 ovarian): > 100 µM
- TGI (SNB-75 CNS): > 100 µM
- TGI (SK-MEL-28 melanoma): > 100 µM
- TGI (NCI-H522 lung): > 100 µM
- TGI (EKVX NSCLC): > 100 µM
- TGI (SK-OV-3 ovarian): > 100 µM
- TGI (HCC-2998 colon): > 100 µM
- TGI (SF-295 CNS): > 100 µM
- TGI (MALME-3M melanoma): > 100 µM
